Reference: ChEMBL document CHEMBL1862790, “Optimisation of fenarimol series for the treatment of Chagas disease”

Columns and labels:
Trypanosoma cruzi [1] = experiment: microbe, parasite or virus in culture; type: functional, organism-based, Tulahuen LacZ, Clone C4
Trypanosoma cruzi [2] = experiment: microbe, parasite or virus in culture; type: functional, Tulahuen LacZ, Clone C4
[3] = DNDI: Cytotoxicity against L-6 rat myoblasts from skeletal muscle cells; conditions: L6 rat skeletal muscle myoblast cells
[4] = Trypanosoma cruzi, Tulahuen LacZ, Clone C4

Row | Structure (SMILES) | IC50 (Trypanosoma cruzi [1]; [4]) | IC90 (Trypanosoma cruzi [2]; [4]) | IC50 ([3]; IC50) | IC50 (Trypanosoma cruzi [1]) | IC90 (Trypanosoma cruzi [2]) | IC50 [3]
1 | O=S(=O)(NC1CCN(C(c2ccc(C(F)(F)F)cc2)c2cnccn2)CC1)c1ccc(C(F)(F)F)cc1 (stereo not given) | 590 nM | > 1000 nM | 18100 nM |  |  | 
2 | Cc1ncoc1C(=O)NC1CCN(C(c2ccc(C#N)cc2)c2cccnc2)CC1 (stereo not given) | 183 nM | 320 nM | > 100000 nM |  |  | 
3 | O=S(=O)(Cc1ccccc1)N1CCC(NC(c2ccc(C(F)(F)F)cc2)c2cnccn2)CC1 (stereo not given) | 210 nM | 770 nM | > 100000 nM |  |  | 
4 | O=S(=O)(C1CCCCC1)N1CCN(C(c2ccc(Cl)cc2)c2cncnc2)CC1 (stereo not given) | 65 nM | 850 nM | 56300 nM |  |  | 
5 | CC(C)Oc1ccc(C(c2cccnc2)N2CCC(NC(=O)OC(C)(C)C)CC2)cc1 (stereo not given) | 25 nM | 80 nM | 56000 nM |  |  | 
6 | Clc1ccc(C(c2cccnc2)N2CCCCC2)cc1 (stereo not given) | 180 nM | 450 nM | > 100000 nM |  |  | 
7 | O=C(Cc1ccccc1)NC1CCN(C(c2ccc(C(F)(F)F)cc2)c2cnccn2)CC1 (stereo not given) | 190 nM | 370 nM | > 100000 nM |  |  | 
8 | O=C(c1ccccc1)N1CCC(NC(c2ccc(C(F)(F)F)cc2)c2cccnc2)CC1 (stereo not given) | 83 nM | 770 nM | 72800 nM |  |  | 
9 | CCOC(=O)NC1CCN(C(c2ccc(Cl)cc2)c2cccnc2)CC1 (stereo not given) | 18 nM | 86 nM | > 100000 nM |  |  | 
10 | CC(C)C(=O)N1CCC(NC(c2ccc(C(F)(F)F)cc2)c2cnccn2)CC1 (stereo not given) | 230 nM | 490 nM | > 100000 nM |  |  | 
11 | O=C(NC1CCCC1)c1cccc(C(O)(c2ccc(Cl)cc2)c2cccnc2)c1 (stereo not given) | 150 nM | 320 nM | 60800 nM |  |  | 
12 | Fc1cc(Cl)ccc1C(NC1CCN(c2nc3ccccc3s2)CC1)c1cccnc1 (stereo not given) | 265 nM | 570 nM | > 100000 nM |  |  | 
13 | CNC(=O)c1cccc(C(O)(c2ccc(Cl)cc2)c2cccnc2)c1 (stereo not given) | 590 nM | 995 nM | > 100000 nM |  |  | 
14 | Clc1ccc(C(NCc2ccccc2)c2cccnc2)cc1 (stereo not given) | 96 nM | 210 nM | > 100000 nM |  |  | 
15 | Cc1n[nH]c(C)c1C(=O)NC1CCN(C(c2ccc(C#N)cc2)c2cccnc2)CC1 (stereo not given) | 185 nM | 518 nM | > 100000 nM |  |  | 
16 | OC(c1ccc(Cl)cc1)(c1ccc(C(F)(F)F)cc1)c1nnc[nH]1 (stereo not given) | 7420 nM | > 10000 nM | > 100000 nM |  |  | 
17 | O=C(Nc1ccccc1)NC1CCN(C(c2cncnc2)c2ccc(Cl)cc2F)CC1 (stereo not given) | 30 nM | 190 nM | 56000 nM |  |  | 
18 | Cc1cc(C(=O)NC2CCN(C(c3ccc(C#N)cc3)c3cccnc3)CC2)n(C(C)(C)C)n1 (stereo not given) | 62 nM | 220 nM | > 100000 nM |  |  | 
19 | O=C(c1cc[nH]n1)N1CCC(NC(c2ccc(C(F)(F)F)cc2)c2cccnc2)CC1 (stereo not given) | 294 nM | 570 nM | > 100000 nM |  |  | 
20 | CC(C)(C)OC(=O)NC1CCN(C(c2ccc(Cl)cc2)c2cccnc2)CC1 (stereo not given) | 8.5 nM | 46 nM | 54000 nM |  |  | 
21 | N#CC(c1ccc(Cl)cc1)c1ccccn1 (stereo not given) | > 1000 nM | > 1000 nM | > 100000 nM |  |  | 
22 | O=S(=O)(c1ccccc1)N1CCN(C(c2ccc(Cl)cc2)c2cncnc2)CC1 (stereo not given) | 66 nM | 320 nM | > 76100 nM |  |  | 
23 | CC(C)CNC(c1ccc(C(F)(F)F)cc1)c1cnccn1 (stereo not given) | 800 nM | 2100 nM | > 100000 nM |  |  | 
24 | O=C(c1ccccc1)N1CCN(C(c2ccc(Cl)cc2)c2cncnc2)CC1 (stereo not given) | 500 nM | 950 nM | 75500 nM |  |  | 
25 | CN(C)C(=O)NC1CCN(C(c2ccc(Cl)cc2)c2cccnc2)CC1 (stereo not given) | 32 nM | 110 nM | > 100000 nM |  |  | 
26 | CON=C(c1ccc(C(F)(F)F)cc1)c1cccnc1 | > 1000 nM | > 1000 nM | 70300 nM |  |  | 

Row | Structure (SMILES) | IC50 (Trypanosoma cruzi [1]; [4]) | IC90 (Trypanosoma cruzi [2]; [4]) | IC50 ([3]; IC50) | IC50 (Trypanosoma cruzi [1]) | IC90 (Trypanosoma cruzi [2]) | IC50 [3]
27 | Cc1noc(C)c1C(=O)N1CCC(CN(c2ccc(C(F)(F)F)cc2)c2cccnc2)CC1 | 86 nM | > 100 nM | 72400 nM |  |  | 
28 | CC(C)CC(O)(c1ccc(Cl)cc1)c1cncnc1 (stereo not given) | 1150 nM | 10000 nM | > 100000 nM |  |  | 
29 | Cc1ccncc1C(O)(c1ccc(Cl)cc1)c1cncnc1 (stereo not given) | 253 nM | 570 nM | > 100000 nM |  |  | 
30 | Cc1cccc(C(O)(c2ccc(Cl)cc2)c2cncnc2)c1 (stereo not given) | 328 nM | 5230 nM | 68400 nM |  |  | 
31 | O=C(c1ccc(F)cc1)c1ccc(Cl)cc1 | > 10000 nM | 10000 nM | > 100000 nM |  |  | 
32 | O=S(=O)(NC(c1ccc(C(F)(F)F)cc1)c1cnccn1)c1ccc(Cl)cc1 (stereo not given) | > 1000 nM | > 1000 nM | 56400 nM |  |  | 
33 | O=C(NC1CCN(C(c2cncnc2)c2ccc(Cl)cc2F)CC1)c1ccc(F)cc1 (stereo not given) | 21.5 nM | 114 nM | 60100 nM |  |  | 
34 | O=C(Nc1ccccc1)N1CCC(NC(c2ccc(C(F)(F)F)cc2)c2cccnc2)CC1 (stereo not given) | 76 nM | 380 nM | 64100 nM |  |  | 
35 | Cc1nc(C(=O)NC2CCN(C(c3ccc(C(F)(F)F)cc3)c3cccnc3)CC2)cs1 (stereo not given) | 17.5 nM | 41 nM | 43800 nM |  |  | 
36 | OC(c1ccc(Cl)cc1)(c1cccnc1)c1ccccc1F (stereo not given) | 54 nM | 152 nM |  | 34.8 nM | 179 nM | > 100000 nM
37 | CC(C)C(=O)N1CCC(NC(c2cnccn2)c2ccc(F)cc2F)CC1 (stereo not given) | 850 nM | > 1000 nM | > 100000 nM |  |  | 
38 | Cc1ncsc1C(=O)N1CC(NC(c2ccc(C(F)(F)F)cc2)c2cccnc2)C1 (stereo not given) | 186 nM | 553 nM | > 100000 nM |  |  | 
39 | FC(F)(F)Cn1cc(C(NC2CCN(c3ccc(OC(F)(F)F)cc3)CC2)c2cccnc2)cn1 (stereo not given) | 65 nM | > 100 nM | 66600 nM |  |  | 
40 | O=C(NC1CCN(C(c2cnccn2)c2ccc(F)cc2F)CC1)C1CCCCC1 (stereo not given) | 800 nM | > 1000 nM | > 100000 nM |  |  | 
41 | CS(=O)(=O)NC1CCN(C(c2ccc(Cl)cc2)c2cccnc2)CC1 (stereo not given) | 100 nM | 640 nM | > 100000 nM |  |  | 
42 | OC(c1cccnc1)(c1cncnc1)c1ccccc1Cl (stereo not given) | 7820 nM | 10000 nM | > 100000 nM |  |  | 
43 | Fc1cc(Cl)ccc1C(NC1CCN(c2c(F)cccc2F)CC1)c1cccnc1 (stereo not given) | 12.5 nM | 33.5 nM | 56300 nM |  |  | 
44 | O=C(N1CCCCC1)N1CCC(NC(c2ccc(Cl)cc2)c2cccnc2)CC1 (stereo not given) | 58 nM | 130 nM | > 100000 nM |  |  | 
45 | O=S(=O)(c1ccc(C(F)(F)F)cc1)N1CCC(NC(c2ccc(C(F)(F)F)cc2)c2cnccn2)CC1 (stereo not given) | 130 nM | 290 nM | 40900 nM |  |  | 
46 | CCS(=O)(=O)N1CCC(NC(c2ccc(C(F)(F)F)cc2)c2cnccn2)CC1 (stereo not given) | 490 nM | 880 nM | > 100000 nM |  |  | 
47 | CCN(CC)C(=O)NC1CCN(C(c2ccc(Cl)cc2)c2cccnc2)CC1 (stereo not given) | 120 nM | 730 nM | > 100000 nM |  |  | 
48 | CC(C)(C)OC(=O)N1CCC(NC(c2ccc(Cl)cc2)c2cccnc2)CC1 (stereo not given) | 24 nM | 74 nM | 58200 nM |  |  | 
49 | Fc1ccc(N2CCC(NC(c3cccnc3)c3ccc(Cl)cc3F)CC2)cc1 (stereo not given) | 19 nM | 53 nM | 55400 nM |  |  | 
50 | O=C(NC1CCN(C(c2cnccn2)c2ccc(F)cc2F)CC1)c1ccc(Cl)cc1 (stereo not given) | 270 nM | 760 nM | 66900 nM |  |  | 
51 | CS(=O)(=O)N1CCN(C(c2cncnc2)c2ccc(C(F)(F)F)cc2F)CC1 (stereo not given) | 24.5 nM | 72.5 nM | > 100000 nM |  |  | 
